Like-named read-outs stand apart in the source and are kept apart here.
Assays:
Format in all cases: cell-based
A549 = assay: Cancer cell viability, A549 (CellTiter-Glo); details: Homo sapiens, 72 h, A549 cells, 3 days, read-out: Cellular IC50 (μM) A549
Method: Representative Compounds of the Disclosure were tested in A549 (Vendor: ATCC; Cat #CCL-185; Description: lung, carcinoma) and/or LK-2 (Vendor: Riken; Cat #RCB1970; Description: lung, squamous cell carcinoma) cellular viability assays according to the following general protocol. • 1. Observed the cells under microscope. • 2. Aspirated the media and added 5 mL trypsin and incubate for 3 mins. • 3. Added 10 mL fresh media and harvested all the cells in to 15 mL tubes. • 4. Centrifuged the cells at 1000 rpm for 5 mins. • 5. Re-suspended the cells with 11 mL media and took 1 mL to determine the cell number and viability. • 6. Prepared cells suspension at 20 K/mL (A549) or 35 K/mL (LK-2) • 7. Seeded the cells into 96-well plate and incubated for overnight. • 8. […] After 3 days, took out the plates from the incubator and observed the cells under microscope. • 10. Passed a film at the bottom of the plates. • 11. Equilibrated the plate and its contents at room temperature for approximately 30 minutes. • 12. Thawed the CellTiter-Glo® Buffer and equilibrated to room temperature prior to use. • 13. Equilibrated the lyophilized CellTiter-Glo® Substrate to room temperature prior to use. • 14. Transferred 100 ml of CellTiter-Glo® Buffer into the amber bottle containing CellTiter-Glo® Substrate to reconstituted the lyophilized enzyme/substrate mixture. • 15. Mixed by gently vortexing, swirling or inverting the contents to obtain a homogeneous solution. • 16. Added 100 μL CellTiter-Glo® Reagent into each well • 17. Mixed contents for 15 minutes on an orbital shaker to induce cell lysis. • 18. Recorded luminescence with EnSpire machine. • 19. Passed the raw data into the file and analyzed the data with XLfit software.

LK-2 = assay: Cancer cell viability, LK-2 (CellTiter-Glo); details: LK-2 cells, 3 days, read-out: Cellular IC50 (μM) LK-2
Method: Representative Compounds of the Disclosure were tested in A549 (Vendor: ATCC; Cat #CCL-185; Description: lung, carcinoma) and/or LK-2 (Vendor: Riken; Cat #RCB1970; Description: lung, squamous cell carcinoma) cellular viability assays according to the following general protocol. • 1. Observed the cells under microscope. • 2. Aspirated the media and added 5 mL trypsin and incubate for 3 mins. • 3. Added 10 mL fresh media and harvested all the cells in to 15 mL tubes. • 4. Centrifuged the cells at 1000 rpm for 5 mins. • 5. Re-suspended the cells with 11 mL media and took 1 mL to determine the cell number and viability. • 6. Prepared cells suspension at 20 K/mL (A549) or 35 K/mL (LK-2) • 7. Seeded the cells into 96-well plate and incubated for overnight. • 8. Added compounds into each well with a HPD300 machine (nine three-fold dilutions typically starting at 30 µM final concentration) and incubated for 3 days. • 9. After 3 days, took out the plates from the incubator and observed the cells under microscope. • 10. Passed a film at the bottom of the plates. • 11. Equilibrated the plate and its contents at room temperature for approximately 30 minutes. • 12. Thawed the CellTiter-Glo® Buffer and equilibrated to room temperature prior to use. • 13. Equilibrated the lyophilized CellTiter-Glo® Substrate to room temperature prior to use. • 14. Transferred 100 ml of CellTiter-Glo® Buffer into the amber bottle containing CellTiter-Glo® Substrate to reconstituted the lyophilized enzyme/substrate mixture. • 15. Mixed by gently vortexing, swirling or inverting the contents to obtain a homogeneous solution. • 16. Added 100 μL CellTiter-Glo® Reagent into each well • 17. Mixed contents for 15 minutes on an orbital shaker to induce cell lysis. • 18. Recorded luminescence with EnSpire machine. • 19. Passed the raw data into the file and analyzed the data with XLfit software.

Nrf2 = molecular target: T1, Nrf2 (Homo sapiens, UniProt Q16236); assay: Nrf2 degradation in A549 HiBiT-Nrf2 cells, Nano-Glo HiBiT lytic detection (HiBiT readout); design: host or cells: A549 HiBiT-Nrf2 cells (engineered line bought from Promega)
T1 sequence (Q16236 1-605): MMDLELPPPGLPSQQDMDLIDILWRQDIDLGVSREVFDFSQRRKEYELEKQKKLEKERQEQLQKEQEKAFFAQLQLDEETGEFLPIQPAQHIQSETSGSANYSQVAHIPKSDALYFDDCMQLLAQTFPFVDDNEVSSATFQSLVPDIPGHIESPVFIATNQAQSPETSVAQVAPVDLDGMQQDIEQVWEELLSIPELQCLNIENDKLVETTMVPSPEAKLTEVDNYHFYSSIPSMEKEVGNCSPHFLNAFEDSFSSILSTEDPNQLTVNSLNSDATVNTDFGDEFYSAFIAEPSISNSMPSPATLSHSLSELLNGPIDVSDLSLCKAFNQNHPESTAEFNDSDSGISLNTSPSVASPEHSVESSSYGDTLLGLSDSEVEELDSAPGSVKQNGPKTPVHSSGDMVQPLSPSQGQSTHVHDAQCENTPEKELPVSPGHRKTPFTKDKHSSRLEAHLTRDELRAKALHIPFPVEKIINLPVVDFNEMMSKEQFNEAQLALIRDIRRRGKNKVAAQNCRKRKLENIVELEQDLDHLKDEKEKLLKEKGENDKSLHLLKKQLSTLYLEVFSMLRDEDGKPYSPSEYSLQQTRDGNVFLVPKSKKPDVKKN
Method: A549 HiBiT-Nrf2 cells (Promega, Cat. No. CS3023219) were seeded into 384-well plates at cell density of 5,000 cells/well in 40 μL of cell culture medium (Ham's F-12 Nutrient Mix supplemented with 10% FBS and 1% antibiotic-antimycotic).
The next day, cells were treated with representative Compounds of the Disclosure and incubated for 6 h and 20 h at 37° C., 5% CO2. Staurosporine was used as a control.
At the end of incubation Nrf2 degradation (HiBiT readout) and cell viability (CellTiter-Glo readout) were determined. For HiBiT readout, Nano-Glo HiBiT Reagent mix (Promega, Cat. No. N3050) was added to wells, plates were incubated 2 min on an orbital shaker and incubated at room temperature in the dark for additional 30 minutes. At the end of incubation luminescence was measured using ultrasensitive luminescence mode (Envision, Perkin Elmer).

[1] = 6 h, read-out: DC50 (nM) at 6 h
[2] = 20 h, read-out: DC50 (nM) at 20 h

Cc1sc(NC(=O)Cc2ccc(F)c(OCCOCCNc3cccc4c3C(=O)N(C3CCC(=O)NC3=O)C4=O)c2)nc1-c1ccc2c(c1)CCN2C(=O)c1cncn1C (stereo not drawn) [Cpd. No. 37, 2-(3-(2-(2-((2-(2,6-dioxopiperidin-3-yl)-1,3-dioxoisoindolin-4-yl)amino)ethoxy)ethoxy)-4-fluorophenyl)-N-(5-methyl-4-(1-(1-methyl-1H-imidazole-5-carbonyl)indolin-5-yl)thiazol-2-yl)acetamide]
IC50 (A549): 0.04 µM | IC50 (LK-2; Homo sapiens, LK-2, 72 h): 0.01 µM | DC50 (Nrf2; [1]): < 300 nM | DC50 (Nrf2; [2]): < 300 nM

Cc1ccccc1C(=O)N1CCc2cc(-c3nc(NC(=O)Cc4cccc(OCCOCCOc5ccc6c(c5)C(=O)N(C5CCC(=O)NC5=O)C6=O)c4)sc3C)ccc21 (stereo not drawn) [Cpd. No. 18, 2-(3-(2-(2-((2-(2,6-dioxopiperidin-3-yl)-1,3-dioxoisoindolin-5-yl)oxy)ethoxy)ethoxy)phenyl)-N-(5-methyl-4-(1-(2-methylbenzoyl)indolin-5-yl)thiazol-2-yl)acetamide]
IC50 (A549): 0.1 µM | IC50 (LK-2; Homo sapiens, LK-2, 72 h): 0.04 µM | DC50 (Nrf2; [1]): 300 to 3000 nM | DC50 (Nrf2; [2]): > 3000 nM

Cc1sc(C(=O)NCc2cccc(OCCOCCNc3ccc4c(c3)C(=O)N(C3CCC(=O)NC3=O)C4=O)c2)nc1-c1ccc2c(c1)CCN2C(=O)C1CC1 (stereo not drawn) [Cpd. No. 38, 4-(1-(cyclopropanecarbonyl)indolin-5-yl)-N-(3-(2-(2-((2-(2,6-dioxopiperidin-3-yl)-1,3-dioxoisoindolin-5-yl)amino)ethoxy)ethoxy)benzyl)-5-methylthiazole-2-carboxamide]
IC50 (A549): 0.2 µM | IC50 (LK-2; Homo sapiens, LK-2, 72 h): 0.04 µM

Cc1ccccc1C(=O)N1CCc2cc(-c3nc(NC(=O)Cc4cccc(OCCN5CCN(c6cccc7c6C(=O)N(C6CCC(=O)NC6=O)C7=O)CC5)c4)sc3C)ccc21 (stereo not drawn) [Cpd. No. 31, 2-(3-(2-(4-(2-(2,6-dioxopiperidin-3-yl)-1,3-dioxoisoindolin-4-yl)piperazin-1-yl)ethoxy)phenyl)-N-(5-methyl-4-(1-(2-methylbenzoyl)indolin-5-yl)thiazol-2-yl)acetamide]
IC50 (A549): > 30 µM | IC50 (LK-2; Homo sapiens, LK-2, 72 h): > 30 µM | DC50 (Nrf2; [1]): > 3000 nM | DC50 (Nrf2; [2]): > 3000 nM

Cc1ccccc1C(=O)N1CCc2cc(-c3nc(NC(=O)Cc4cccc(OCCOCCOCCOc5ccc6c(c5)C(=O)N(C5CCC(=O)NC5=O)C6=O)c4)sc3C)ccc21 (stereo not drawn) [Cpd. No. 19, 2-(3-(2-(2-(2-((2-(2,6-dioxopiperidin-3-yl)-1,3-dioxoisoindolin-5-yl)oxy)ethoxy)ethoxy)ethoxy)phenyl)-N-(5-methyl-4-(1-(2-methylbenzoyl)indolin-5-yl)thiazol-2-yl)acetamide]
IC50 (A549): 11 µM | IC50 (LK-2; Homo sapiens, LK-2, 72 h): 2.5 µM

Cc1sc(NC(=O)Cc2cccc(OCCOCCNc3ccc4c(c3)C(=O)N(C3CCC(=O)NC3=O)C4=O)c2)nc1-c1ccc2c(c1)CCN2C(=O)c1cncn1C (stereo not drawn) [Cpd. No. 23, 2-(3-(2-(2-((2-(2,6-dioxopiperidin-3-yl)-1,3-dioxoisoindolin-5-yl)amino)ethoxy)ethoxy)phenyl)-N-(5-methyl-4-(1-(1-methyl-1H-imidazole-5-carbonyl)indolin-5-yl)thiazol-2-yl)acetamide]
IC50 (A549): 0.09 µM | IC50 (LK-2; Homo sapiens, LK-2, 72 h): 0.02 µM

Cc1ccccc1C(=O)N1CCc2cc(-c3nc(NC(=O)Cc4cccc(OCCCCN5CCN(c6ccc7c(c6)C(=O)N(C6CCC(=O)NC6=O)C7=O)CC5)c4)sc3C)ccc21 (stereo not drawn) [Cpd. No. 26, 2-(3-(4-(4-(2-(2,6-dioxopiperidin-3-yl)-1,3-dioxoisoindolin-5-yl)piperazin-1-yl)butoxy)phenyl)-N-(5-methyl-4-(1-(2-methylbenzoyl)indolin-5-yl)thiazol-2-yl)acetamide]
IC50 (A549): > 30 µM | IC50 (LK-2; Homo sapiens, LK-2, 72 h): 0.8 µM

Cc1ccccc1C(=O)N1CCc2cc(-c3nc(NC(=O)Cc4cccc(OCCCCN5CCN(c6cccc7c6C(=O)N(C6CCC(=O)NC6=O)C7=O)CC5)c4)sc3C)ccc21 (stereo not drawn) [Cpd. No. 33, 2-(3-(4-(4-(2-(2,6-dioxopiperidin-3-yl)-1,3-dioxoisoindolin-4-yl)piperazin-1-yl)butoxy)phenyl)-N-(5-methyl-4-(1-(2-methylbenzoyl)indolin-5-yl)thiazol-2-yl)acetamide]
IC50 (A549): > 30 µM | IC50 (LK-2; Homo sapiens, LK-2, 72 h): > 30 µM

Cc1sc(NC(=O)Cc2ccc(F)c(OCCOCCNc3cccc4c3C(=O)N(C3CCC(=O)NC3=O)C4=O)c2)nc1-c1ccc2c(c1)CCN2C(=O)C1CC1 (stereo not drawn) [Cpd. No. 36, N-(4-(1-(cyclopropanecarbonyl)indolin-5-yl)-5-methylthiazol-2-yl)-2-(3-(2-(2-((2-(2,6-dioxopiperidin-3-yl)-1,3-dioxoisoindolin-4-yl)amino)ethoxy)ethoxy)-4-fluorophenyl)acetamide]
IC50 (A549): 0.06 µM | IC50 (LK-2; Homo sapiens, LK-2, 72 h): 0.03 µM | DC50 (Nrf2; [1]): < 300 nM | DC50 (Nrf2; [2]): < 300 nM

Cc1sc(NC(=O)Cc2ccc(F)c(OCCOCCNc3ccc4c(c3)C(=O)N(C3CCC(=O)NC3=O)C4=O)c2)nc1-c1ccc2c(c1)CCN2C(=O)c1cncn1C (stereo not drawn) [Cpd. No. 29, 2-(3-(2-(2-((2-(2,6-dioxopiperidin-3-yl)-1,3-dioxoisoindolin-5-yl)amino)ethoxy)ethoxy)-4-fluorophenyl)-N-(5-methyl-4-(1-(1-methyl-1H-imidazole-5-carbonyl)indolin-5-yl)thiazol-2-yl)acetamide]
IC50 (A549): 0.05 µM | IC50 (LK-2; Homo sapiens, LK-2, 72 h): 0.01 µM | IC50 (LK-2): 0.02 µM | DC50 (Nrf2; [1]): < 300 nM | DC50 (Nrf2; [2]): < 300 nM

Cc1ccccc1C(=O)N1CCc2cc(-c3nc(NC(=O)Cc4cccc(OCCOCCOCCNc5ccc6c(c5)C(=O)N(C5CCC(=O)NC5=O)C6=O)c4)sc3C)ccc21 (stereo not drawn) [Cpd. No. 21, 2-(3-(2-(2-(2-((2-(2,6-dioxopiperidin-3-yl)-1,3-dioxoisoindolin-5-yl)amino)ethoxy)ethoxy)ethoxy)phenyl)-N-(5-methyl-4-(1-(2-methylbenzoyl)indolin-5-yl)thiazol-2-yl)acetamide]
IC50 (A549): > 30 µM | IC50 (LK-2; Homo sapiens, LK-2, 72 h): > 30 µM
